Key:
Assay type in all cases: cell-based
Raji [1] = test: Inhibition of TPA-induced EBV-early antigen activation in human Raji cells at 100 molar ratio after 48 hrs by indirect immunofluorescence technique relative to TPA; conditions: human gammaherpesvirus 4
[2] = Cytotoxicity against human Raji cells assessed as cell viability at 1000 molar ratio; conditions: read-out: Activity
[3] = Cytotoxicity against human Raji cells assessed as cell viability at 100 molar ratio; conditions: read-out: Activity
Raji [4] = test: Inhibition of TPA-induced EBV-early antigen activation in human Raji cells at 10 molar ratio after 48 hrs by indirect immunofluorescence technique relative to TPA; conditions: human gammaherpesvirus 4
[5] = Cytotoxicity against human Raji cells assessed as cell viability at 500 molar ratio; conditions: read-out: Activity
Raji [6] = test: Inhibition of TPA-induced EBV-early antigen activation in human Raji cells at 500 molar ratio after 48 hrs by indirect immunofluorescence technique relative to TPA; conditions: human gammaherpesvirus 4
[7] = Cytotoxicity against human Raji cells assessed as cell viability at 10 molar ratio; conditions: read-out: Activity

Row | SMILES | EBV-EA activation % of TPA control (Raji [1]) [%] | viability at 1000 molar ratio [2] [%] | viability at 100 molar ratio [3] [%] | EBV-EA activation % of TPA control (Raji [4]) [%] | viability at 500 molar ratio [5] [%] | EBV-EA activation % of TPA control (Raji [6]) [%] | viability at 10 molar ratio [7] [%]
1 | Cc1cnc2c(c1)C(=O)c1c(O)ccc(O)c1C2=O | 82.6 | 40 | > 80 | 100 | 50 | 16.8 | > 80
2 | O=C1c2ccccc2C(=O)c2occc21 | 0 | 0 | 10 | 59.4 | 10 | 0 | 70
3 | O=C1C=CC(=O)c2c(O)cccc21 [JUGLONE] | 97.8 | 40 | > 80 | 100 | 60 | 13.1 | > 80
4 | COc1c(CO)c(O)cc2c1C(=O)c1ccccc1C2=O [DAMNACANTHOL] | 100 | 70 | > 80 | 100 | > 80 | 91.2 | > 80
5 | COCc1c(O)cc2c(c1O)C(=O)c1ccccc1C2=O | 80.4 | 60 | > 80 | 100 | > 80 | 77 | > 80
6 | Cc1ccnc2c1C(=O)c1ccccc1-2 [ONYCHINE] | 100 | 70 | > 80 | 100 | > 80 | 94.1 | > 80
7 | CN(C)C1=CC(=O)c2cccc(O)c2C1=O | 89.7 | > 80 | > 80 | 100 | > 80 | 53.8 | > 80
8 | Cc1ccnc2c1C(O)c1ccccc1-2 (configuration not stated) | 100 | > 80 | > 80 | 100 | > 80 | 100 | > 80
9 | O=C1C=CC(=O)c2ccccc21 [NAPHTHOQUINONE] | 37.5 | 20 | 50 | 100 | 50 | 0 | > 80
10 | O=C1c2ccccc2-c2ncccc21 | 100 | 70 | > 80 | 100 | > 80 | 97.6 | > 80
11 | Cc1cnc2c(c1)C(=O)c1ccccc1C2=O | 76.5 | 70 | > 80 | 100 | > 80 | 48.7 | > 80
12 | Cc1ccnc2c1C(=O)c1ccccc1C2=O [CLEISTOPHOLINE] | 77.5 | 70 | > 80 | 100 | > 80 | 48.7 | > 80
13 | O=C1c2cccc(O)c2C(=O)c2cccc(O)c21 [ANTHRARUFIN] | 92.3 | 70 | > 80 | 100 | > 80 | 70.1 | > 80
14 | O=C1c2cccc(O)c2C(=O)c2c(O)cccc21 [DANTHRON] | 71.2 | > 80 | > 80 | 94.2 | > 80 | 61.9 | > 80
15 | Cc1ccnc2c1C(=O)c1cc(O)ccc1C2=O | 74.4 | 60 | > 80 | 100 | 60 | 73.9 | > 80
16 | COc1ccc(OC)c2c1C(=O)c1nccc(C)c1C2=O | 100 | 70 | > 80 | 100 | > 80 | 100 | > 80

Row | SMILES | EBV-EA activation % of TPA control (Raji [1]) [%] | viability at 1000 molar ratio [2] [%] | viability at 100 molar ratio [3] [%] | EBV-EA activation % of TPA control (Raji [4]) [%] | viability at 500 molar ratio [5] [%] | EBV-EA activation % of TPA control (Raji [6]) [%] | viability at 10 molar ratio [7] [%]
17 | O=C1c2ccc(O)cc2C(=O)c2ccc(O)cc21 [ANTHRAFLAVICACID] | 89.9 | > 80 | > 80 | 100 | > 80 | 78.6 | > 80
18 | O=C(O)c1cc(O)c2c(c1)[C@@H]([C@H]1c3cc(C(=O)O)cc(O)c3C(=O)c3c(O[C@@H]4O[C@H](CO)[C@@H](O)[C@H](O)[C@H]4O)cccc31)c1cccc(O[C@@H]3O[C@H](CO)[C@@H](O)[C@H](O)[C@H]3O)c1C2=O [SENNOSIDE B] | 100 | 70 | > 80 | 100 | > 80 | 100 | > 80
19 | Cc1cnc2c(c1)C(=O)c1cccc(O)c1C2=O | 72.4 | 30 | 60 | 100 | > 80 | 15.8 | > 80
20 | O=C1c2ccccc2C(=O)c2c(O)ccc(O)c21 [QUINIZARIN] | 100 | 70 | > 80 | 100 | > 80 | 100 | > 80
21 | CN(C)C1=CC(=O)c2c(O)cccc2C1=O | 61.5 | > 80 | > 80 | 89.2 | > 80 | 60.5 | > 80
22 | CN(C)C1=CC(=O)c2c(O)ccc(O)c2C1=O | 87.2 | 50 | > 80 | 100 | > 80 | 28.2 | > 80
23 | COc1c(CO)c(O)cc2c1C(=O)c1cccc(O)c1C2=O [JUZUNOL] | 100 | > 80 | > 80 | 100 | > 80 | 100 | > 80
24 | O=C1c2ccccc2C(=O)c2sccc21 [THIOPHENONAPHTHOQUINONE] | 52.8 | 0 | 70 | 81.4 | 0 | 0 | > 80
25 | CC1C=CNC2=C1C(=O)c1c(O)ccc(O)c1C2=O (configuration not stated) | 100 | 10 | > 80 | 100 | 70 | 20.4 | > 80
26 | Cc1ccc2c(n1)C(=O)c1c(O)cccc1C2=O | 56.8 | 10 | > 80 | 92.4 | 50 | 17.3 | > 80
27 | CC1C=CNC2=C1C(=O)c1cc(O)ccc1C2=O (configuration not stated) | 66.7 | 70 | > 80 | 100 | > 80 | 62.1 | > 80
28 | COCc1c(O)cc2c(c1O)C(=O)c1cccc(O)c1C2=O | 51.8 | > 80 | > 80 | 100 | > 80 | 21 | > 80
29 | COc1cccc2c1C(=O)c1c(ccc3c1OCO3)C2=O | 82.5 | 60 | > 80 | 100 | > 80 | 57.6 | > 80
30 | O=C1c2ccccc2C(=O)c2c(O)c(O)cc(O)c21 [PURPURIN] | 100 | 70 | > 80 | 100 | > 80 | 54.3 | > 80
31 | COc1cccc2c1C(=O)c1ncc(C)cc1C2=O | 100 | > 80 | > 80 | 100 | > 80 | 83 | > 80
